Data: patent US20230143604A1, “QW DOSING OF GIP RECEPTOR AGONIST PEPTIDE COMPOUNDS AND USES THEREOF” (TAKEDA PHARMACEUTICAL COMPANY LIMITED, priority 2020, published 2023)
Like-named read-outs stand apart in the source and are kept apart here.

Tests used:
female beagle dogs = test: PYY-1119-induced vomiting in dogs; assay type: in vivo; details: 3 nmol/kg s.c., 72 hours post-dose (lower line)
Method: The GIPR agonist peptide compounds of the present disclosure or vehicle (0.09% [w/v] Tween 80/10% DMSO/PBS) were administered subcutaneously (sc) at 3-10 nmol/kg to female beagle dogs (10 months old), followed by sc injections with Y2R agonist ((4-imidazolecarbonyl-Ser-D-Hyp-Iva-Pya(4)-Cha-Leu(Me)-Asn-Lys-Aib-Thr-Arg-Gln-Arg-Cha-NH2), […]), […]) at 1 hour or specified hours in the table postdose. Emetic episodes were counted for 2 hours after administration (by blinded analysis).

physchem = test: physchem
Outline: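 3 mg of peptide treated with 100 μL portions of 200 mM phosphate buffer pH 7.4, sonicating/vortexing up to 1 min, with further buffer added until fully dissolved. Solubility then quantified by HPLC.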

Dogs = assay type: in vivo; details: 30 nmol/kg s.c.
Method: Dogs are transferred to an observation cage (700 mm W×700 mm D×700 mm H [W×D×H], without food) on 1 day before each apomorphine challenge. The dogs are weighed by using an electronic balance then test peptide compounds and vehicle will be administrated via the subcutaneous route. Apomorphine is challenged at 8 hr after the administration and emetic events will be monitored for 1 h by video recording. The second apomorphine challenge will be 72 hr after the administration and emetic events will be recorded by the same protocol. Emesis symptoms are continuously recorded using a video camera and stored on a blue ray disc. Observation of symptoms include retching (a rhythmic contraction of the abdomen) and vomiting (vomiting behavior, including the elimination of vomitus or similar behavior). Besides, the combination of retching and vomiting is defined as emesis, and the number of episodes, latency (time elapsed from morphine administration until the onset of the first emesis symptom), duration (time elapsed between the onset of the first and final episodes of emesis), and frequency (number of animals showing emesis/number of experimental animals) of each of these symptoms is calculated. The latency in cases where emesis symptoms are not noted is taken as the maximum value (1 h for apomorphine challenge) at the end of observation. When the duration of the emesis symptoms is less than 1 min, the duration is recorded, for convenience, as 1 min.

[1] = Pharmacokinetics in dog after IV and SC dosing; details: in vivo, 3 nmol/kg
Outline: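 Dogs were dosed IV or SC at 1 mL/kg with peptide at 3 nmol/mL in 10% DMSO/0.09% Polysorbate/PBS pH 7.4. K2-EDTA plasma was sampled to 336 h, and peptide was quantified by LCMS to derive half-life.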

SMILES: CC[C@H](C)[C@H](NC(=O)[C@H](CO)NC(=O)[C@H](Cc1ccc(O)cc1)NC(=O)[C@H](CC(=O)O)NC(=O)[C@H](CO)NC(=O)[C@@H](NC(=O)[C@H](Cc1ccccc1)NC(=O)[C@@H](NC(=O)CNC(=O)[C@H](CCC(=O)O)NC(=O)C(C)(C)NC(=O)[C@H](Cc1ccc(O)cc1)NC)[C@@H](C)O)[C@@H](C)CC)C(=O)N[C@@H](C)C(=O)N[C@@H](CCCCNC(=O)CNC(=O)CNC(=O)CNC(=O)CNC(=O)CNC(=O)CCCCCCCCCCCCCCCCC(=O)O)C(=O)N[C@@H](CC(=O)O)C(=O)N[C@@H](CCCNC(=N)N)C(=O)NC(C)(C)C(=O)N[C@@H](C)C(=O)N[C@@H](CCC(N)=O)C(=O)NC(C)(C)C(=O)N[C@@H](CC(N)=O)C(=O)N[C@@H](Cc1ccccc1)C(=O)N[C@H](C(=O)N[C@@H](CC(N)=O)C(=O)N[C@@H](Cc1c[nH]c2ccccc12)C(=O)N[C@@H](CC(C)C)C(=O)N[C@@H](CC(C)C)C(=O)N[C@@H](C)C(=O)N[C@@H](CCC(N)=O)C(=O)N[C@@H](CO)C(=O)N1CCC[C@H]1C(=O)N[C@@H](CO)C(=O)N[C@@H](CO)C(=O)NCC(=O)N[C@@H](C)C(=O)N1CCC[C@H]1C(=O)N1CCC[C@H]1C(=O)N1CCC[C@H]1C(=O)N[C@@H](CO)C(=O)O)C(C)C [Compound 45, Me-Y-Aib-E-G-T-F-I-S-D-Y-S-I-A-Km-D-R-Aib-A-Q-Aib-N-F-V-N-W-L-L-A-Q-S-P-S-S-G-A-P-P-P-S-OH]
- Inhibition (%) of PYY-1119-induced emetic event (female beagle dogs): 90% (3 nmol/kg)
- solubility (physchem; pH 7.4): ≥ 15 mg/mL
- solubility (physchem; pH 7.4, aqueous buffer): ≥ 60 mg/mL
- % inhibition of emetic events at doses (nmol/kg) shown in dog apomorphine model (Dogs; after 8 hrs (upper)): 70% (30 nmol/kg)
- % inhibition of emetic events at doses (nmol/kg) shown in dog apomorphine model (Dogs; after 72 hours (lower)): 72% (30 nmol/kg)
- half-life ([1]; iv): 62 h
- MRT last ([1]; sc): 125 h
